Measured values reported in patent US20040266699A1, “Flavonoid compounds capable of modifying the dynamic and/or physical state of biological membranes and to stimulate the endogenous synthesis of stress proteins in eukaryotic cells, relative synthesis and their use” (priority 2001, published 2004).

Assays:
human hsp70 promoter = assay: Luciferase reporter assay under control of human hsp70 promoter in L929 cells exposed to heat shock; type: cell-based, murine; conditions: 10 μM, heat shock at 40° C. and 41° C., Bimoclomol as internal positive control
Description: For example, L929 cells, incubated at 37° C., are stressed by heat shock at 40° or 41° C. with exposures variable from 20 min to an hour or more. After heat shock, a molecular assay that involves mRNA purification, its separation on agarose or acrylamide gels followed by hybridization with a labeled probe ([…] performed. Alternatively, the activity of luciferase used as reported gene under the control of a heat shock promoter can be used (FIG. 1). In this case, after heat shock cells are lysed in the presence of an appropriate substrate for luciferase, the activity is measured with a luminometer. […] The test utilized to assay the over expression of heat shock genes is based on a rapid enzymatic assay to determine luminescence of eukaryotic cells transfected with luciferase gene. The luciferase gene has been cloned in an eukaryotic plasmid under the control of human hsp70 gene and transfected in murine fibroblasts (L929 cell line). In such cells, a heat shock induces hsp70 promoter that activates transcription of the downstream gene (reporter gene, e.g. luciferase) whose activity is measured determining luciferase in the presence of luciferine with a luminometer. […] After lysis, luciferase activity has been determined measuring the quantity of light emitted with a luminometer. […]

[1] = Membrane fluidity (DPH fluorescence anisotropy) in artificial membranes (LUVs); conditions: LUVs of di-oleil-fosfatidyl-ethanolamine, di-oleil-fosfatidyl-choline, cardiolipin and fosfatidylserine; 1 DPH per 500 lipid molecules
Description: Test to evaluate changes of MPS in artificial membranes (LUVs, Large Unilamellar Vesicles), made of di-oleil-fosfatidyl-ethanolamine, di-oleil-fosfatidyl-choline, cardiolipin and fosfatidylserine, that mimic biological membrane lipid composition. Fluidity has been measured with DPH (1,6-difenyl-1,3,5-esatriene) measuring fluorescence.
In these membranes, every 500 lipid molecules is inserted. 1 molecule of DPH This substance emits fluorescent light when it is excited with polarized light. The more a membrane is rigid the less is the capacity of the molecules to rotate freely in the membrane. Using a fluorimeter that detects the emitted fluorescence by DPH, either vertically in respect to the polarizing light or horizontally, the anisotropy of the membrane is determined and correlated to its fluidity. The more the membrane is fluid, the more DPH rotates freely and emits light in a direction different from that with which it receives the excitation. To a higher value of anisotropy corresponds a higher rigidity of the membrane, while a lower anisotropy (low fluorescence) corresponds a higher fluidity.

Row | SMILES | heat shock response (hsp70 promoter-driven luciferase activity / inducibility of hsp70 mRNA transcription by heat shock) (human hsp70 promoter) | change of membrane physical state (fluidity) measured with DPH fluorescence [1]
1 | Oc1ccc2c(c1)O[C@H](c1ccc(O)c(O)c1)[C@@H](O[C@@H]1OC[C@@H](O)[C@H](O)[C@H]1O)C2 [#11, fisetinidol-3-O-β-D-xylopyranoside] | induce a heat shock response | increases fluidity
2 | Oc1ccc(C=Cc2cc(O)cc(O)c2)cc1 [#100, Resveratrol, reference compound] | inhibits the inducibility of hsp70 mRNA transcription by heat shock | 
